Laboratory results: patent US20230301300A1, “HERBICIDAL COMPOSITIONS” (SYNGENTA CROP PROTECTION AG, priority 2020, published 2023)

How the values were obtained:
Assay in all cases: B2 Post-Emergence Efficacy - Test 2
Assay type in all cases: in vivo
[1] = system: Stellaria media (STEME); conditions: 15 days after application, 0-100 scale
Procedure, shortened: (§1)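 Glasshouse post-emergence test: plants sown in standard soil, grown 12 days (24/18 °C or 20/16 °C day/night; 16 h light; 65% humidity), sprayed once with an aqueous IF50-based formulation including 0.2% v/v Genapol X080. Visual injury, 0–100, recorded 15 days post-application.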

[2] = system: Sida spinosa (SIDSP); conditions: 15 days after application, 0-100 scale
Procedure, shortened: as §1

[3] = system: Sorghum bicolour (SORVU); conditions: 15 days after application, 0=no damage, 100=total kill
Procedure, shortened: as §1

[4] = system: Echinochloa crus galli (ECHCG); conditions: 15 days after application, 0=no damage, 100=total kill
Procedure, shortened: as §1

[5] = system: Brassica napus (BRSNN); conditions: 15 days after application, 0-100 scale
Procedure, shortened: as §1

[6] = system: Xanthium strumarium (XANST); conditions: 15 days after application, 0-100 scale
Procedure, shortened: as §1

[7] = system: Alopecurus myosuroides (ALOMY); conditions: 15 days after application, 0-100 scale
Procedure, shortened: as §1

[8] = system: Chenopodium album (CHEAL); conditions: 15 days after application, 0-100 scale
Procedure, shortened: as §1

[9] = system: Abutilon theophrasti (ABUTH); conditions: 15 days after application, 0-100 scale
Procedure, shortened: as §1

[10] = system: Lolium perenne (LOLPE); conditions: 15 days after application, 0-100 scale
Procedure, shortened: as §1

[11] = system: Orysa sativa (ORYSA); conditions: 15 days after application; for Herbicidal activity ORYSA: 0-100 scale; for Herbicidal activity on a 0-100 scale, ORYSA: 0=no damage, 100=total kill
Procedure, shortened: as §1

[12] = system: Zea mays (ZEAMX); conditions: 15 days after application; for Herbicidal activity ZEAMX: 0-100 scale; for Herbicidal activity on a 0-100 scale, ZEAMX: 0=no damage, 100=total kill
Procedure, shortened: as §1

[13] = system: Glycine max (GLXMA); conditions: 15 days after application; for Herbicidal activity GLXMA: 0-100 scale; for Herbicidal activity on a 0-100 scale, GLXMA: 0=no damage, 100=total kill
Procedure, shortened: as §1

[14] = system: Euphorbia hetrophylla (EPHHL); conditions: 15 days after application, 0-100 scale
Procedure, shortened: as §1

[15] = system: Panicum miliaceum (PANMI); conditions: 15 days after application, 0=no damage, 100=total kill
Procedure, shortened: as §1

[16] = system: Bromus tectorum (BROTE); conditions: 15 days after application, 0-100 scale
Procedure, shortened: as §1

[17] = system: Poa annua (POAAN); conditions: 15 days after application, 0-100 scale
Procedure, shortened: as §1

Q: What does the source list for `Cc1nn(C)c(=O)c(-c2c(F)ccc(Cl)c2CCc2ccc(F)cc2)c1OC(=O)C(C)C` [Compound 1.125, [5-[3-chloro-6-fluoro-2-[2-(4-fluorophenyl)ethyl]phenyl]-1,3-dimethyl-6-oxo-pyridazin-4-yl] 2-methylpropanoate]?
A: Herbicidal activity STEME ([1]; 15 g/Ha): 90; Herbicidal activity STEME ([1]; 30 g/Ha): 90; Herbicidal activity STEME ([1]; 60 g/Ha): 90; Herbicidal activity STEME ([1]; 125 g/Ha): 90; Herbicidal activity STEME ([1]; 250 g/Ha): 90; Herbicidal activity STEME ([1]; 500 g/Ha): 90; Herbicidal activity SIDSP ([2]; 60 g/Ha): 80; Herbicidal activity SIDSP ([2]; 125 g/Ha): 90; Herbicidal activity SIDSP ([2]; 250 g/Ha): 90; Herbicidal activity SIDSP ([2]; 500 g/Ha): 100; Herbicidal activity on a 0-100 scale, SORVU ([3]; 15 g/Ha): 0; Herbicidal activity on a 0-100 scale, SORVU ([3]; 30 g/Ha): 50; Herbicidal activity on a 0-100 scale, SORVU ([3]; 60 g/Ha): 50; Herbicidal activity on a 0-100 scale, SORVU ([3]; 125 g/Ha): 70; Herbicidal activity on a 0-100 scale, SORVU ([3]; 250 g/Ha): 80; Herbicidal activity on a 0-100 scale, SORVU ([3]; 500 g/Ha): 90; Herbicidal activity on a 0-100 scale, ECHCG ([4]; 15 g/Ha): 70; Herbicidal activity on a 0-100 scale, ECHCG ([4]; 30 g/Ha): 80; Herbicidal activity on a 0-100 scale, ECHCG ([4]; 60 g/Ha): 80; Herbicidal activity on a 0-100 scale, ECHCG ([4]; 125 g/Ha): 80; Herbicidal activity on a 0-100 scale, ECHCG ([4]; 250 g/Ha): 90; Herbicidal activity on a 0-100 scale, ECHCG ([4]; 500 g/Ha): 100; Herbicidal activity BRSNN ([5]; 15 g/Ha): 80; Herbicidal activity BRSNN ([5]; 30 g/Ha): 80; Herbicidal activity BRSNN ([5]; 60 g/Ha): 80; Herbicidal activity BRSNN ([5]; 125 g/Ha): 90; Herbicidal activity BRSNN ([5]; 250 g/Ha): 90; Herbicidal activity BRSNN ([5]; 500 g/Ha): 90; Herbicidal activity XANST ([6]; 30 g/Ha): 90; Herbicidal activity XANST ([6]; 60 g/Ha): 90; Herbicidal activity XANST ([6]; 125 g/Ha): 90; Herbicidal activity XANST ([6]; 250 g/Ha): 90; Herbicidal activity XANST ([6]; 500 g/Ha): 100; Herbicidal activity ALOMY ([7]; 15 g/Ha): 10; Herbicidal activity ALOMY ([7]; 30 g/Ha): 10; Herbicidal activity ALOMY ([7]; 60 g/Ha): 30; Herbicidal activity ALOMY ([7]; 125 g/Ha): 30; Herbicidal activity ALOMY ([7]; 250 g/Ha): 60; Herbicidal activity ALOMY ([7]; 500 g/Ha): 40; Herbicidal activity CHEAL ([8]; 15 g/Ha): 90; Herbicidal activity CHEAL ([8]; 30 g/Ha): 90; Herbicidal activity CHEAL ([8]; 60 g/Ha): 90; Herbicidal activity CHEAL ([8]; 125 g/Ha): 90; Herbicidal activity CHEAL ([8]; 250 g/Ha): 90; Herbicidal activity CHEAL ([8]; 500 g/Ha): 90; Herbicidal activity ABUTH ([9]; 15 g/Ha): 80; Herbicidal activity ABUTH ([9]; 30 g/Ha): 90; Herbicidal activity ABUTH ([9]; 60 g/Ha): 90; Herbicidal activity ABUTH ([9]; 125 g/Ha): 90; Herbicidal activity ABUTH ([9]; 250 g/Ha): 100; Herbicidal activity ABUTH ([9]; 500 g/Ha): 100; Herbicidal activity LOLPE ([10]; 15 g/Ha): 40; Herbicidal activity LOLPE ([10]; 30 g/Ha): 50; Herbicidal activity LOLPE ([10]; 60 g/Ha): 60; Herbicidal activity LOLPE ([10]; 125 g/Ha): 70; Herbicidal activity LOLPE ([10]; 250 g/Ha): 80; Herbicidal activity LOLPE ([10]; 500 g/Ha): 90; Herbicidal activity ORYSA ([11]; 15 g/Ha): 0; Herbicidal activity on a 0-100 scale, ORYSA ([11]; 15 g/Ha): 0; Herbicidal activity ORYSA ([11]; 30 g/Ha): 0; Herbicidal activity on a 0-100 scale, ORYSA ([11]; 30 g/Ha): 0; Herbicidal activity ORYSA ([11]; 60 g/Ha): 0; Herbicidal activity on a 0-100 scale, ORYSA ([11]; 60 g/Ha): 0; Herbicidal activity ORYSA ([11]; 125 g/Ha): 0; Herbicidal activity on a 0-100 scale, ORYSA ([11]; 125 g/Ha): 0; Herbicidal activity ORYSA ([11]; 250 g/Ha): 0; Herbicidal activity on a 0-100 scale, ORYSA ([11]; 250 g/Ha): 0; Herbicidal activity ORYSA ([11]; 500 g/Ha): 0; Herbicidal activity on a 0-100 scale, ORYSA ([11]; 500 g/Ha): 0; Herbicidal activity ZEAMX ([12]; 15 g/Ha): 0; Herbicidal activity on a 0-100 scale, ZEAMX ([12]; 15 g/Ha): 0; Herbicidal activity ZEAMX ([12]; 30 g/Ha): 20; Herbicidal activity on a 0-100 scale, ZEAMX ([12]; 30 g/Ha): 20; Herbicidal activity ZEAMX ([12]; 60 g/Ha): 30; Herbicidal activity on a 0-100 scale, ZEAMX ([12]; 60 g/Ha): 30; Herbicidal activity ZEAMX ([12]; 125 g/Ha): 20; Herbicidal activity on a 0-100 scale, ZEAMX ([12]; 125 g/Ha): 20; Herbicidal activity ZEAMX ([12]; 250 g/Ha): 40; Herbicidal activity on a 0-100 scale, ZEAMX ([12]; 250 g/Ha): 40; Herbicidal activity ZEAMX ([12]; 500 g/Ha): 70; Herbicidal activity on a 0-100 scale, ZEAMX ([12]; 500 g/Ha): 70; Herbicidal activity GLXMA ([13]; 15 g/Ha): 40; Herbicidal activity on a 0-100 scale, GLXMA ([13]; 15 g/Ha): 40; Herbicidal activity GLXMA ([13]; 30 g/Ha): 70; Herbicidal activity on a 0-100 scale, GLXMA ([13]; 30 g/Ha): 70; Herbicidal activity GLXMA ([13]; 60 g/Ha): 70; Herbicidal activity on a 0-100 scale, GLXMA ([13]; 60 g/Ha): 70; Herbicidal activity GLXMA ([13]; 250 g/Ha): 90; Herbicidal activity on a 0-100 scale, GLXMA ([13]; 250 g/Ha): 90; Herbicidal activity GLXMA ([13]; 500 g/Ha): 90; Herbicidal activity on a 0-100 scale, GLXMA ([13]; 500 g/Ha): 90; Herbicidal activity EPHHL ([14]; 15 g/Ha): 90; Herbicidal activity EPHHL ([14]; 30 g/Ha): 90; Herbicidal activity EPHHL ([14]; 60 g/Ha): 100; Herbicidal activity EPHHL ([14]; 125 g/Ha): 100; Herbicidal activity EPHHL ([14]; 250 g/Ha): 100; Herbicidal activity EPHHL ([14]; 500 g/Ha): 100; Herbicidal activity on a 0-100 scale, PANMI ([15]; 15 g/Ha): 20; Herbicidal activity on a 0-100 scale, PANMI ([15]; 30 g/Ha): 30; Herbicidal activity on a 0-100 scale, PANMI ([15]; 60 g/Ha): 50; Herbicidal activity on a 0-100 scale, PANMI ([15]; 125 g/Ha): 50; Herbicidal activity on a 0-100 scale, PANMI ([15]; 250 g/Ha): 70; Herbicidal activity on a 0-100 scale, PANMI ([15]; 500 g/Ha): 80; Herbicidal activity BROTE ([16]; 15 g/Ha): 0; Herbicidal activity BROTE ([16]; 30 g/Ha): 0; Herbicidal activity BROTE ([16]; 60 g/Ha): 0; Herbicidal activity BROTE ([16]; 125 g/Ha): 0; Herbicidal activity BROTE ([16]; 250 g/Ha): 10; Herbicidal activity BROTE ([16]; 500 g/Ha): 10; Herbicidal activity POAAN ([17]; 15 g/Ha): 0; Herbicidal activity POAAN ([17]; 30 g/Ha): 10; Herbicidal activity POAAN ([17]; 60 g/Ha): 20; Herbicidal activity POAAN ([17]; 125 g/Ha): 60; Herbicidal activity POAAN ([17]; 250 g/Ha): 70; Herbicidal activity POAAN ([17]; 500 g/Ha): 60
